Laboratory results published in US20130302442A1, “METHODS OF USING (4S,4AS,5AR,12AS)-4-DIMETHYLAMINO-3,10,12,12A-TETRAHYDROXY-7-[(METHOXY(METHYL)AMINO)-METHYL]-1,11-DIOXO-1,4,4A,5,5A,6,11,12A-OCTAHYDRO-NAPHTHACENE-2-CARBOXYLIC ACID AMIDE” (priority 2012, published 2013).
Converted amounts (≈) assume the structure as drawn. Read-outs that look alike come from different tables or passages of the source.

What was measured:
[1] = tested on: Porphyromonas asaccharolytica; test: In vitro MIC testing against anaerobic bacteria; type: cell-based
Eikenella corrodens = test: In vitro MIC testing against anaerobic bacteria; type: cell-based; conditions: ATCC43278
P. avidum = test: In vitro MIC testing, antibacterial spectrum of activity; type: cell-based; conditions: P. avidum [clinical isolates] (4 isolates)
Salmonella Spp. = test: as above; type: cell-based; conditions: Salmonella
E. cloacae = test: as above; type: cell-based; conditions: Enterobacter cloacae; E. cloacae (30 isolates)
S. epidermidis = test: as above; type: cell-based, Staphylococcus epidermidis; conditions: for MIC50 / MIC90: Staphylococcus epidermidis; for MIC50: read-out: MIC50; for MIC90: read-out: MIC90
E. faecalis = test: as above; type: cell-based; conditions: for MIC50 / MIC90 / MIC: Enterococcus faecalis; for MIC50: read-out: MIC50; for MIC90: read-out: MIC90
Chlamydia pneumoniae = test: Susceptibility testing (MIC, MBC) of 10 isolates of C. pneumoniae in HEp-2 cells; type: cell-based
[2] = tested on: Streptococcus constellatus; test: In vitro MIC testing against anaerobic bacteria; type: cell-based; conditions: Streptococcus constellatus, ATCC27823
Chlamydia trachomatis [3] = test: Susceptibility testing (MIC, MBC) of 10 isolates of C. trachomatis in HEp-2 cells; type: cell-based
[4] = tested on: community-acquired methicillin-resistant S. aureus (MRSA-CA); test: In vitro MIC against isolates of MRSA-CA; type: cell-based, Staphylococcus aureus
[5] = tested on: hospital-associated methicillin-resistant S. aureus (MRSA-HA); test: In vitro MIC against isolates of MRSA-HA; type: cell-based, Staphylococcus aureus; conditions: MRSA-HA (33 isolates)
P. acnes = test: In vitro MIC testing, antibacterial spectrum of activity; type: cell-based, Propionibacterium acnes; conditions: for MIC50: read-out: MIC50; for MIC90: read-out: MIC90
Chlamydia trachomatis [6] = test: In vitro susceptibility testing of Chlamydia trachomatis in HEp-2 cells (first study); type: cell-based; conditions: Chlamydia trachomatis, C. trachomatis strains, read-out: MIC at which 90% of the strains were inhibited (MIC90)
S. aureus = test: In vitro MIC testing, antibacterial spectrum of activity; type: cell-based, Staphylococcus aureus; conditions: for MIC50 / MIC90 / MIC: Staphylococcus aureus; for MIC50: read-out: MIC50; for MIC90: read-out: MIC90
[7] = tested on: methicillin-sensitive S. aureus (MSSA); test: In vitro MIC against isolates of MSSA; type: cell-based, Staphylococcus aureus
[8] = Porphyromonas asaccharolytica 3552, read-out: MIC
[9] = Porphyromonas asaccharolytica 3557, read-out: MIC
[10] = S. epidermidis [MRSE] (32 isolates)
[11] = S. epidermidis [MSSE] (31 isolates)
[12] = E. faecalis [tetS] (4 isolates)
[13] = E. faecalis [VSE] (31 isolates)
[14] = Staphylococcus aureus, MRSA-CA (33 isolates)
[15] = Cutibacterium acnes, P. acnes [clinical isolates] (55 isolates)
[16] = Cutibacterium acnes, P. acnes [tetS] (13 isolates)
[17] = MRSA, S. aureus [MRSA] (31 isolates)
[18] = MSSA, S. aureus [MSSA] (32 isolates)

CN(C)c1ccc(O)c2c1C[C@H]1C[C@H]3[C@H](N(C)C)C(O)=C(C(N)=O)C(=O)[C@@]3(O)C(O)=C1C2=O [Minocycline, minocycline]
MIC [1, 8]: 8 µg/mL (≈ 17.5 µM) | MIC [1, 9]: 4 µg/mL (≈ 8.74 µM) | MIC (Eikenella corrodens; Eikenella corrodens): 0.03 µg/mL (≈ 0.0656 µM) | MIC Range (P. avidum): 0.25 to 2 µg/mL | MIC50 (Salmonella Spp.): 2 µg/mL (≈ 4.37 µM) | MIC90 (E. cloacae): 16 µg/mL (≈ 35 µM) | MIC Range (S. epidermidis; [10]): 0.06 to 0.5 µg/mL | MIC Range (S. epidermidis; [11]): 0.06 to 0.25 µg/mL | MIC50 (S. epidermidis; [10]): 0.12 µg/mL (≈ 0.262 µM) | MIC90 (S. epidermidis; [10]): 0.25 µg/mL (≈ 0.546 µM) | MIC50 (S. epidermidis; [11]): 0.06 µg/mL (≈ 0.131 µM) | MIC90 (S. epidermidis; [11]): 0.25 µg/mL (≈ 0.546 µM) | MIC Range (E. faecalis; [12]): 0.25 to 0.5 µg/mL | MIC50 (E. faecalis; [13]): 8 µg/mL (≈ 17.5 µM) | MIC90 (E. faecalis; [13]): 16 µg/mL (≈ 35 µM)

C[C@H]1c2cccc(O)c2C(=O)C2=C(O)[C@]3(O)C(=O)C(C(N)=O)=C(O)[C@@H](N(C)C)[C@@H]3[C@@H](O)[C@@H]21 [Doxycycline, doxycycline]
MIC Range (Chlamydia pneumoniae; 72 h): 0.0625 to 0.125 µg/mL | MIC50 (Chlamydia pneumoniae; Chlamydia pneumoniae, 72 h): 0.125 µg/mL (≈ 0.281 µM) | MIC90 (Chlamydia pneumoniae; Chlamydia pneumoniae, 72 h): 0.125 µg/mL (≈ 0.281 µM) | MBC (Chlamydia pneumoniae; Chlamydia pneumoniae, after passage, read-out: MBC 90%): 0.5 µg/mL (≈ 1.13 µM) | MBC 90% (Chlamydia pneumoniae; after passage): 0.5 µg/mL (≈ 1.13 µM) | MBC Range (Chlamydia pneumoniae; after passage): 0.25 to 0.5 µg/mL | MIC [1, 8]: 4 µg/mL (≈ 9 µM) | MIC [1, 9]: 2 µg/mL (≈ 4.5 µM) | MIC [2]: 16 µg/mL (≈ 36 µM) | MIC (Eikenella corrodens; Eikenella corrodens 1206, ATCC 43278, read-out: MIC): 0.12 µg/mL (≈ 0.27 µM) | MIC Range (Chlamydia trachomatis [3]; 72 h): 0.03 to 0.25 µg/mL | MIC50 (Chlamydia trachomatis [3]; Chlamydia trachomatis, 72 h): 0.06 µg/mL (≈ 0.135 µM) | MIC90 (Chlamydia trachomatis [3]; Chlamydia trachomatis, 72 h): 0.125 µg/mL (≈ 0.281 µM) | MBC (Chlamydia trachomatis [3]; Chlamydia trachomatis, after passage, read-out: MBC 90%): 0.125 µg/mL (≈ 0.281 µM) | MBC Range (Chlamydia trachomatis [3]; after passage): 0.03 to 0.25 µg/mL | MIC Range (P. avidum): 0.5 to 4 µg/mL | MIC Range ([4]; MRSA-CA (33 isolates)): 0.12 to 8 µg/mL | MIC50 [4, 14]: 0.12 µg/mL (≈ 0.27 µM) | MIC90 [4, 14]: 2 µg/mL (≈ 4.5 µM) | MIC ([4]; Staphylococcus aureus, single strain of doxycycline-resistant MRSA-CA): 8 µg/mL (≈ 18 µM) | MIC Range [5]: 0.12 to 1 µg/mL | MIC50 ([5]; Staphylococcus aureus): 0.25 µg/mL (≈ 0.563 µM) | MIC90 ([5]; Staphylococcus aureus): 0.5 µg/mL (≈ 1.13 µM) | MIC (P. acnes; Cutibacterium acnes): 8 µg/mL (≈ 18 µM) | MIC50 (P. acnes; [15]): 0.5 µg/mL (≈ 1.13 µM) | MIC90 (P. acnes; [15]): 2 µg/mL (≈ 4.5 µM) | MIC50 (P. acnes; [16]): 0.25 µg/mL (≈ 0.563 µM) | MIC90 (P. acnes; [16]): 1 µg/mL (≈ 2.25 µM) | MIC Range (P. acnes; P. acnes [clinical isolates] (55 isolates)): 0.25 to 16 µg/mL | MIC Range (P. acnes; P. acnes [tetR] (2 isolates)): 8-8 μg/mL | MIC Range (P. acnes; P. acnes [tetS] (2 isolates)): 0.12 to 0.5 µg/mL | MIC Range (P. acnes; P. acnes [tetS] (13 isolates)): 0.25 to 1 µg/mL | MIC90 (Chlamydia trachomatis [6]): 0.125 µg/mL (≈ 0.281 µM) | MIC Range (S. aureus; S. aureus [MRSA] (31 isolates)): 0.12 to 2 µg/mL | MIC Range (S. aureus; S. aureus [MSSA] (32 isolates)): 0.12 to 8 µg/mL | MIC Range (S. aureus; S. aureus [tetR] (10 isolates)): 1 to 16 µg/mL | MIC Range (S. aureus; S. aureus [tetS] (20 isolates)): ≦0.06-0.25 μg/mL | MIC50 (S. aureus; [17]): 0.12 µg/mL (≈ 0.27 µM) | MIC90 (S. aureus; [17]): 0.25 µg/mL (≈ 0.563 µM) | MIC50 (S. aureus; [18]): 0.12 µg/mL (≈ 0.27 µM) | MIC90 (S. aureus; [18]): 0.25 µg/mL (≈ 0.563 µM) | MIC50 (S. aureus; S. aureus [tetR] (10 isolates)): 4 µg/mL (≈ 9 µM) | MIC90 (S. aureus; S. aureus [tetR] (10 isolates)): 16 µg/mL (≈ 36 µM) | MIC50 (S. aureus; S. aureus [tetS] (20 isolates)): ≤ 0.06 µg/mL | MIC90 (S. aureus; S. aureus [tetS] (20 isolates)): 0.25 µg/mL (≈ 0.563 µM) | MIC (S. aureus; S. aureus strain PBS # 1309, tetK): 2 µg/mL (≈ 4.5 µM) | MIC (S. aureus; S. aureus strain PBS # 1310, tetM): 16 µg/mL (≈ 36 µM) | MIC (S. aureus; S. aureus strain PBS # 1739, tet38): 2 µg/mL (≈ 4.5 µM) | MIC Range (S. epidermidis; [10]): 0.12 to 8 µg/mL | MIC Range (S. epidermidis; [11]): 0.06 to 1 µg/mL | MIC50 (S. epidermidis; [10]): 0.5 µg/mL (≈ 1.13 µM) | MIC90 (S. epidermidis; [10]): 1 µg/mL (≈ 2.25 µM) | MIC50 (S. epidermidis; [11]): 0.12 µg/mL (≈ 0.27 µM) | MIC90 (S. epidermidis; [11]): 1 µg/mL (≈ 2.25 µM) | MIC Range ([7]; MSSA (34 isolates)): 0.12 to 8 µg/mL | MIC50 ([7]; Staphylococcus aureus, MSSA (34 isolates)): 0.25 µg/mL (≈ 0.563 µM) | MIC90 ([7]; Staphylococcus aureus, MSSA (34 isolates), read-out: MIC90): 0.5 µg/mL (≈ 1.13 µM) | MIC ([7]; Staphylococcus aureus, single strain of doxycycline-resistant MSSA): 8 µg/mL (≈ 18 µM) | MIC Range (E. faecalis; [13]): 0.12 to 16 µg/mL | MIC Range (E. faecalis; E. faecalis [tetR] (6 isolates)): 2 to 16 µg/mL | MIC Range (E. faecalis; [12]): ≦0.06-0.125 μg/mL | MIC (E. faecalis; E. faecalis strain PBS # 274, tetL): 16 µg/mL (≈ 36 µM) | MIC (E. faecalis; E. faecalis strain PBS # 276, tetM): 8 µg/mL (≈ 18 µM) | MIC (E. faecalis; E. faecalis strain PBS # 949, tetS): 2 µg/mL (≈ 4.5 µM) | MIC50 (E. faecalis; [13]): 8 µg/mL (≈ 18 µM) | MIC90 (E. faecalis; [13]): 8 µg/mL (≈ 18 µM)
